Usually Log P stands for a log measure of how a compound divides between an organic and an aqueous phase.

Values joined by “and” are separate entries in the source; they are usually repeats but may differ in a detail not shown here. Equal values may be shown once. Read-outs that look alike come from different tables or passages of the source.

The nature of data set [1]: Filter paper test: ten 10-ml water washings, UV analysis of AI washed through. It is filed as physicochemical. To be noted: for R (rating factor, number of washings to deplete the AI): ten 10-ml water washings; for mobility on filter paper or soil: washed with several 10 ml aliquots of water. From the text:
All of the polymers in this set of experiments were combined with the AI at a 70% AI by weight to 30% polymer by weight concentrations. […] The filter paper samples were applied to a slightly wet Buchner funnel to set the paper evenly and then ten 10-ml aliquots of de-ionized (DI) water were suctioned through the filter paper. Ultraviolet light (UV) analysis for each of the 10-ml fractions was used to determine the absorption of the AI (264 nm) washed through the filter paper and recorded as absorption versus each individual 10-ml wash.
The control for these systems was evaluated by placing methylene chloride solutions of the AI alone or the polymer alone onto the filter paper, drying overnight, and washing with ten 10-ml aliquots of DI water.
The AI was dry ground (mortar and pestle) with urea-formaldehyde flower foam as the cage material [commercial product (Foliage Fresh)] where the ratio of AI to flower foam was 70%/30% by weight. This mixture then was tumbled-coated with an organic solvent solution of a hydrophobic polymer (paraffin wax/hexane; polystyrene/toluene; silicone oil/toluene) in a round bottom flask. […] Small amounts (0.07 g) of the powder were placed on the filter paper and subsequently washed with ten 10-ml aliquots of DI water and analyzed in a similar manner as previously described.
Liquid samples of the AI-polymer combinations and AI control samples were applied to filter paper (Whatman #2) and dried for 24 hours at room temperature. The filter paper containing the AI-polymer combination or the AI control samples were placed in a Buchner funnel under water aspiration vacuum conditions, while ten 10-ml aliquots of water were applied to the top of the filter paper containing the AI-polymer or AI control material, which was then sucked through the filter paper and collected in the receiving flask that holds the funnel-vacuum attachment.
After each 10-ml aliquot of water was suctioned through the filter paper containing the sample, the suctioned solution then was removed and analyzed with a UV spectrometer for any AI that went through the water washing process. The ten 10-ml sequential washings were a simulation of how an AI applied to soil would remain on the soil and migrate through the soil under a rain environmental exposure condition.
Dry 100% solid samples were placed on the filter paper directly and subsequently washed with ten 10-ml aliquots in a similar manner as the liquid samples that were dried after placement on the filter paper.
Various concentrations of the AI's were dissolved in water or water and a co-solvent and analyzed at 254 nm or other UV/visible regions of the spectrum in order to establish a standard calibration curve of absorbance versus AI concentration.

Data set [2] is described as follows: Soil column test: topsoil column washed with ten 10-ml aliquots of water. It is filed as physicochemical. The protocol:
The soil column was prepared by cutting off the tip of a 15 ml VWR brand CAT, No. 20171-036 polypropylene centrifuge tube leaving approximately a ⅛-inch opening, which was filled with cotton to prevent the soil from pouring out the bottom. The cotton block was 0.5-inch thick, which held unpacked 3 inches of Nature's topsoil from the Michigan Peat Co., (Oakland Nursery). The topsoil was sieved ten times through a #7 metal screen sieve to remove large debris before filling the tubes.
A 50-μl sample of the mixture was applied to the filter paper and dried while a 200-μl sample was applied to the top of the soil columns and dried before washing with ten 10-ml aliquots of water.

For data set [3] the following is noted: cited from earlier work.
The conditions of data set [4]: cited from earlier work. The source holds these as a separate data set.
The conditions of data set [5]: cited from earlier work. The source holds these as a separate data set.
A further data set deals with sugar beet leaves. To be noted: amorphous wax surface; cited from earlier work.
For another data set, the system named is kohlrabi leaves. The settings on record: fine crystalline wax surface; cited from earlier work.
Where [6] appears, read: filter paper, 10-ml water washing 6.
[7] abbreviates: filter paper, 10-ml water washing 7.
The mark [8] stands for this setting: filter paper, 10-ml water washing 8.
Setting [9] is: filter paper, 10-ml water washing 9.
Where [10] appears, read: filter paper, 10-ml water washing 10, * = not all released after 10 washings.
The mark [11] stands for this setting: Table 26, USDA Pesticide Properties Database.

Consider `CC(C)N.O=C(O)COc1ccc(Cl)cc1Cl` [2,4-D Amine Salt], for which the “number of 10-ml water washes to pass through / be depleted from the filter paper” value in data set [1] was 1-2 washes. Besides, the “controlled-release properties (in words)” value in data set [1] (filter paper, 10-ml aliquots of water) was “no control release capabilities”. Moreover, the “% released” value is on record as 94% in data set [1] (filter paper, 10-ml water washing 1); 86% in data set [1] (filter paper, 10-ml water washing 1, listed as 2,4-D Salt); 6% in data set [1] (filter paper, 10-ml water washing 2); 14% in data set [1] (filter paper, 10-ml water washing 2, listed as 2,4-D Salt); 0% in data set [1] (filter paper, 10-ml water washing 3); 0% in data set [1] (filter paper, 10-ml water washing 4). In addition, the “% released” value is reported as 0% in data set [1] (filter paper, 10-ml water washing 5); 0% in data set [1] (setting [6]); 0% in data set [1] (setting [7]); 0% in data set [1] (setting [8]); 0% in data set [1] (setting [9]); 0% in data set [1] (setting [10]). In addition, the “% released” value in data set [2] (10-ml water washing 1) was 32%; in data set [2] (10-ml water washing 2), 26%; in data set [2] (10-ml water washing 3) it was 20%; in data set [2] (10-ml water washing 4), 13%; in data set [2] (10-ml water washing 5), 9%; in data set [2] (10-ml water washing 6) it was 0%. The “% released” value in data set [2] (10-ml water washing 7), in data set [2] (10-ml water washing 8), in data set [2] (10-ml water washing 9) and in data set [2] (10-ml water washing 10) was 0% throughout. The “R (rating factor, number of washings to deplete the AI)” value came out at 2 in data set [1] (filter paper) and 5 in data set [2] (ten 10-ml water washings).

Turning to `COc1c(Cl)ccc(Cl)c1C(=O)O` [Dicamba], the “Log P” value in data set [3] is listed as −1.88. Moreover, the KOC in data set [4] (setting [11]) is listed as 2 mg/g; in data set [4] (Tables 21-25), 12. Besides, the “Water Solubility” value in data set [5] is 250000 µg/mL.

For the compound `CN(C)C(=O)Nc1ccccc1` [Fenuron], in data set [3], the “Log P” value is listed as 0.98. For the same compound, the KOC in data set [4] (Tables 21-25) is given as 42. Also, the “Water Solubility” value in data set [5] is 3850 µg/mL.

Turning to `O=C(O)CNCP(=O)(O)O` [Glyphosate], the “capability to penetrate leaf surfaces” value in the data set on sugar beet leaves and in the data set with kohlrabi leaves was “very little capability to penetrate leaf surfaces” each time.

As to `CC(C)C1(C)N=C(c2ncccc2C(=O)O)NC1=O` (stereo not shown) [Imazapyr], the “% released” value in data set [1] (filter paper, 10-ml water washing 1, listed as AI Control) is 49%; in data set [1] (filter paper, 10-ml water washing 1, listed as IMI Acid), 41%; in data set [1] (filter paper, 10-ml water washing 1, listed as IMI acid alone), 28%; in data set [1] (filter paper, 10-ml water washing 2, listed as AI Control), 47% and 49%; in data set [1] (filter paper, 10-ml water washing 2, listed as IMI Acid), 39% and 37%; in data set [1] (filter paper, 10-ml water washing 2, listed as IMI acid alone), 30%. In addition, the “% released” value in data set [1] (filter paper, 10-ml water washing 3, listed as AI Control) was 4% and 2%; in data set [1] (filter paper, 10-ml water washing 3, listed as IMI Acid), 14%; in data set [1] (filter paper, 10-ml water washing 3, listed as IMI acid alone) it was 25%; in data set [1] (filter paper, 10-ml water washing 4, listed as AI Control) it was 0%; in data set [1] (filter paper, 10-ml water washing 4, listed as IMI Acid), 6% and 5%; in data set [1] (filter paper, 10-ml water washing 4, listed as IMI acid alone), 13%. The “% released” value was found to be 0% in data set [1] (filter paper, 10-ml water washing 5, listed as AI Control); 0% in data set [1] (filter paper, 10-ml water washing 5, listed as IMI Acid); 4% in data set [1] (filter paper, 10-ml water washing 5, listed as IMI acid alone); 0% in data set [1] (setting [6]); 0% in data set [1] (setting [7]); 0% in data set [1] (setting [8]). The “% released” value in data set [1] (setting [9]) and in data set [1] (setting [10]) was 0% throughout. In addition, the “R (rating factor, number of washings to deplete the AI)” value came out at 3 in data set [1] (filter paper, listed as AI Control); 3 in data set [1] (filter paper, listed as AI control); 4 in data set [1] (filter paper, listed as IMI Acid); 5 in data set [1] (filter paper, listed as IMI acid alone).

Consider `CON(C)C(=O)Nc1ccc(Cl)c(Cl)c1` [Linuron], for which the KOC in data set [4] (setting [11]) was 400 mg/g; in data set [4] (Tables 21-25) it was 620. Besides, the “Water Solubility” value in data set [5] was 63.8 µg/mL.

For `CCCCN(C)C(=O)Nc1ccc(Cl)c(Cl)c1` [Neburon], in data set [3], the “Log P” value was 3.8. Moreover, the KOC in data set [4] (Tables 21-25) is on record as 2500.

For the compound `CC(COc1ccc(Oc2ccccc2)cc1)Oc1ccccn1` (stereo not shown) [Pyriproxyfen], in data set [4] (clay-loam soils), the Koc is listed as 58,000. For the same compound, the “% released” value is given as 0% in data set [1] (filter paper/soil release system, washing 1 (first line)); 0% in data set [1] (filter paper/soil release system, washing 3); 0% in data set [1] (filter paper/soil release system, washing printed 1 (second line)). Further, the “mobility on filter paper or soil” value is reported as “no mobility” in data set [1] and “did not move with any of the water washes” in data set [1] (listed as PPF).

Turning to `c1ccc2[nH]c(-c3cscn3)nc2c1` [Thiabendazole], the “Log P” value in data set [3] was 2.39. Further, in data set [4] (Tables 21-25), the KOC is 2500. The “Water Solubility” value in data set [5] was 30 µg/mL.

These data come from patent publication US9801371B2, “Self-assembling polymer particle release system” (priority 2010, dated 2017).
